The results in this text go back to patent US11919901B2 (Syndax Pharmaceuticals, Inc., priority 2021, dated 2024).

For the test, the system named is MV4-11 cells. Kind of test: Cell proliferation assay MV4;11 (CellTiter-Glo, 72 hours). In kind it is cell-based. The note with it: Homo sapiens; MV4;11 leukemia cell line, 72 hours; read-out: MV4; 11 IC50. The procedure, abridged:
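MV4-11 cells (MLL1-AF4 fusion) exposed 72 h at 37 °C to 8 compound concentrations, final 0.632–2000 nM. Viability by CellTiter-Glo luminescence as % of vehicle RLU; % max inhibition = 100 − viability at top concentration.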
On the technique in general: ATP-based viability assays read luminescence as a measure of living cells.

With `C[C@@H]1COC[C@@H](C)N1C(=O)c1cc(F)ccc1Oc1cncnc1N1CC2(CCN(C[C@@H]3CC[C@@H](NS(=O)(=O)NC4CC4)CO3)CC2)C1` [Example 159, N-[(3R,6S)-6-{[2-(5-{2-[(3R,5R)-3,5-Dimethylmorpholine-4-carbonyl]-4-fluorophenoxy}pyrimidin-4-yl)-2,7-diazaspiro[3.5]nonan-7-yl]methyl}oxan-3-yl](cyclopropylamino)sulfonamide], the IC50 was under 100 nM.

With `C[C@@H]1COC[C@H](C)N1C(=O)c1cc(F)ccc1Oc1cncnc1N1CC2(CCN(C[C@@H]3CC[C@@H](NS(=O)(=O)N(C)C)CO3)CC2)C1` [Example 160, {[(3R,6S)-6-{[2-(5-{2-[(3R,5S)-3,5-Dimethylmorpholine-4-carbonyl]-4-fluorophenoxy}pyrimidin-4-yl)-2,7-diazaspiro[3.5]nonan-7-yl]methyl}oxan-3-yl]sulfamoyl}dimethylamine], the IC50 is under 100 nM.

On to `C[C@@H]1COC[C@H](C)N1C(=O)c1cc(F)ccc1Oc1cncnc1N1CC2(CCN(C[C@@H]3CC[C@@H](NS(=O)(=O)N4CCC4)CO3)CC2)C1` [Example 161, N-((3R,6S)-6-((2-(5-(2-((3R,5S)-3,5-Dimethylmorpholine-4-carbonyl)-4-fluorophenoxy)pyrimidin-4-yl)-2,7-diazaspiro[3.5]nonan-7-yl)methyl)tetrahydro-2H-pyran-3-yl)azetidine-1-sulfonamide], for which the IC50 was under 100 nM.

For `C[C@@H]1COC[C@H](C)N1C(=O)c1cc(F)ccc1Oc1cncnc1N1CC2(CCN(C[C@@H]3CC[C@@H](NS(=O)(=O)NCC(F)(F)F)CO3)CC2)C1` [Example 162, {[(3R,6S)-6-{[2-(5-{2-[(3R,5S)-3,5-Dimethylmorpholine-4-carbonyl]-4-fluorophenoxy}pyrimidin-4-yl)-2,7-diazaspiro[3.5]nonan-7-yl]methyl}oxan-3-yl]sulfamoyl}(2,2,2-trifluoroethyl)amine], the IC50 was under 100 nM.

As to `C[C@@H]1COC[C@H](C)N1C(=O)c1cc(F)ccc1Oc1cncnc1N1CC2(CCN(C[C@@H]3CC[C@@H](NS(=O)(=O)NC4CC4)CO3)CC2)C1` [Example 163, N-[(3R,6S)-6-{[2-(5-{2-[(3R,5S)-3,5-Dimethylmorpholine-4-carbonyl]-4-fluorophenoxy}pyrimidin-4-yl)-2,7-diazaspiro[3.5]nonan-7-yl]methyl}oxan-3-yl](cyclopropylamino)sulfonamide], the IC50 is under 100 nM.

`CC(C)N(C(=O)c1cc(F)ccc1Oc1cncnc1N1CC2(CCN(C[C@@H]3CC[C@@H](NS(=O)(=O)C4CC4)CO3)CC2)C1)[C@@H]1CCOC1` [Example 164, 2-((4-(7-(((2S,5R)-5-(Cyclopropanesulfonamido)tetrahydro-2H-pyran-2-yl)methyl)-2,7-diazaspiro[3.5]nonan-2-yl)pyrimidin-5-yl)oxy)-5-fluoro-N-isopropyl-N-((R)-tetrahydrofuran-3-yl)benzamide]: the IC50 was under 100 nM.

As to `CCN(CC)S(=O)(=O)N[C@@H]1CC[C@@H](CN2CCC3(CC2)CN(c2ncncc2Oc2ccc(F)cc2C(=O)N(C(C)C)[C@@H]2CCOC2)C3)OC1` [Example 165, 2-((4-(7-(((2S,5R)-5-((N,N-Diethylsulfamoyl)amino)tetrahydro-2H-pyran-2-yl)methyl)-2,7-diazaspiro[3.5]nonan-2-yl)pyrimidin-5-yl)oxy)-5-fluoro-N-isopropyl-N-((R)-tetrahydrofuran-3-yl)benzamide], the IC50 is under 100 nM.

`CC(C)N(C(=O)c1cc(F)ccc1Oc1cncnc1N1CC2(CCN(C[C@@H]3CC[C@@H](NS(C)(=O)=O)CO3)CC2)C1)[C@@H]1CCOC1` [Example 166, 5-Fluoro-N-isopropyl-2-((4-(7-(((2S,5R)-5-(methylsulfonamido)tetrahydro-2H-pyran-2-yl)methyl)-2,7-diazaspiro[3.5]nonan-2-yl)pyrimidin-5-yl)oxy)-N-((R)-tetrahydrofuran-3-yl)benzamide]: the IC50 was under 100 nM.
